Drawing on patent publication US11498896B2 (The Broad Institute, Inc., priority 2014, dated 2022), this text covers EC50 and IC50 for 28 compounds.

What is called EC50 is the concentration that produces a half-maximal response. Read a high EC50 as lower potency in that assay. The term IC50 denotes the concentration at which inhibition is half-maximal. Lower therefore signals inhibition by little substance.

Experiment [1] addresses T1, human D2R/β-arrestin (Homo sapiens (Human), UniProt P14416). Briefly: Gi/cAMP agonist assay (Lance Ultra cAMP, forskolin). It is filed as cell-based. To be noted: CHO-K1 cells expressing human D2R/β-arrestin; agonist mode, 2.5 μM forskolin. The protocol:
Eu-cAMP tracer solution (10 μl, PerkinElmer, 360 μl of Tracer in 17.64 ml kit buffer) and ULight-anti-cAMP solution (10 μl, 120 μL antibody in 17.88 ml kit buffer) was then added to each well.

In experiment [2] the target is T1, human D2R/β-arrestin. Nature of the experiment: β-arrestin agonist assay (PathHunter). The experiment is classed as cell-based. To be noted: CHO-K1 cells expressing human D2R/β-arrestin; agonist mode. The protocol: The detection reagent (9.6 μL, Buffer:Emerald II:Galactor-Star in a 19:5:1 ratio, i.e., 14.06 mL:3.7 mL:0.74 mL=18.5 mL) was then added to the agonist plates.

In experiment [3] the target is T1, human D2R/β-arrestin. Nature of the experiment: cell-based. To be noted: cAMP Antagonist, CHO-K1 cells expressing human D2R/β-arrestin; antagonist mode, 2.5 μM forskolin and 2.7 nM quinpirole.
Experiment [4] addresses T1, human D2R/β-arrestin. Nature of the experiment: cell-based. Particulars: β-arrestin Antagonist, CHO-K1 cells expressing human D2R/β-arrestin; antagonist mode, quinpirole 130 nM.
Method: Cells were prepared for assays by growing cultures for up to 2 weeks (from about 6-20 passages). A vial of frozen cells was thawed in a water bath held at 37° C. The cells were then transferred into a 50 ml tube with 10 ml growth media. The vial was rinsed with growth media and the contents transferred to the 50 ml tube. The 50 ml tube was centrifuged at 1200 rpm for 5 minutes at room temperature. […] When the cells reached about 90% confluence (approximately 3 days between passages), the cells were passaged and used for either the agonist or antagonist assays as described below.
The cells were prepared for β-arrestin assays as described above. The assays were performed using a PathHunter® β-Arrestin Detecting Kit (DiscoveRX). The cells were grown on 225 mm dishes, then washed once with 1×PBS (Cellgro), followed by digestion with 2.5 ml 1× Detachment reagent (DRX 92-0009) for approximately 2 minutes.

T1 sequence (P14416 whole entry): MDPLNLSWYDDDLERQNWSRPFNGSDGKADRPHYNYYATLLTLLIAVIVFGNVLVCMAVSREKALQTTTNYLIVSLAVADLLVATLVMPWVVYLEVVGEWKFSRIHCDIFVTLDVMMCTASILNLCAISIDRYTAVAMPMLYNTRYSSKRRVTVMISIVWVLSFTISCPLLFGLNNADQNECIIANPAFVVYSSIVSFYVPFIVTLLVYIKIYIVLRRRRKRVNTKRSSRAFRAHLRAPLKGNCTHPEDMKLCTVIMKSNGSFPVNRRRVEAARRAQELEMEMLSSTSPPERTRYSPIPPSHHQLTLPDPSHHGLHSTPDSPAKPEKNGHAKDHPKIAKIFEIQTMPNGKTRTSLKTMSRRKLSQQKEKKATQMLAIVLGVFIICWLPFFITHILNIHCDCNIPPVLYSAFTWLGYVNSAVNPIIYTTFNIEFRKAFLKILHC

In the case of `CC1(Oc2ccccc2C(F)(F)F)CCN(CCOc2ccccc2)C1` (stereo not shown) [Example 56, 3-Methyl-1-(2-phenoxyethyl)-3-(2-(trifluoromethyl)phenoxy) pyrrolidine], the EC50 at human D2R/β-arrestin [1] is below 0.1 µM; on human D2R/β-arrestin [2], above 30 µM. The concentration for half-maximal inhibition (IC50) on human D2R/β-arrestin [3] and at human D2R/β-arrestin [4] was 1 to 10 µM throughout.

As to `CC1(Oc2ccccn2)CCN(CCOc2ccccc2)C1` (stereo not shown) [Example 57, 2-((3-methyl-1-(2-phenoxyethyl)pyrrolidin-3-yl)oxy)pyridine], the EC50 at human D2R/β-arrestin [1] is 0.1 to 1 µM; on human D2R/β-arrestin [2], above 30 µM. The 50% inhibitory concentration (IC50) on human D2R/β-arrestin [3] is above 30 µM; on human D2R/β-arrestin [4], 1 to 10 µM.

`CC1(Oc2cccnc2)CCN(CCOc2ccccc2)C1` (stereo not shown) [Example 58, 3-((3-methyl-1-(2-phenoxyethyl)pyrrolidin-3-yl)oxy)pyridine]: the results for the EC50 at human D2R/β-arrestin [1] and at human D2R/β-arrestin [2] were below 0.1 µM and 1 to 10 µM, respectively. Besides, the half-maximal inhibitory concentration (IC50) against human D2R/β-arrestin [3] and against human D2R/β-arrestin [4] was above 30 µM each time.

As to `CC1(Oc2cnccn2)CCN(CCOc2ccccc2)C1` (stereo not shown) [Example 60, 2-((3-methyl-1-(2-phenoxyethyl)pyrrolidin-3-yl)oxy)pyrazine], the figures for the EC50 at human D2R/β-arrestin [1] and on human D2R/β-arrestin [2] were below 0.1 µM and 0.1 to 1 µM, respectively. The IC50 at human D2R/β-arrestin [3] and at human D2R/β-arrestin [4] was above 30 µM in each case.

Turning to `CC1(Oc2cccc(C(F)(F)F)c2)CCCN(CCOc2ccccc2F)C1` (stereo not shown) [Example 61, 1-(2-(2-Fluorophenoxy)ethyl)-3-methyl-3-(3-(trifluoromethyl)phenoxy) piperidine], the EC50 at human D2R/β-arrestin [1] and at human D2R/β-arrestin [2] was above 30 µM throughout. For the same compound, the half-maximal inhibitory concentration (IC50) lay within 0.1 to 1 µM on human D2R/β-arrestin [3] and 1 to 10 µM on human D2R/β-arrestin [4].

Turning to `CC1(Oc2cccc(C(F)(F)F)c2)CCCN(CCOc2cc(F)ccc2F)C1` (stereo not shown) [Example 62, 1-(2-(2,5-Difluorophenoxy)ethyl)-3-methyl-3-(3-(trifluoromethyl)phenoxy)piperidine], the EC50 at human D2R/β-arrestin [1] and on human D2R/β-arrestin [2] was above 30 µM in each case. The IC50 at human D2R/β-arrestin [3] and against human D2R/β-arrestin [4] was 1 to 10 µM throughout.

As for `CC1(Oc2cccc(C(F)(F)F)c2)CCCN(CCOc2ccccc2Cl)C1` (stereo not shown) [Example 63, 1-(2-(2-Chlorophenoxy)ethyl)-3-methyl-3-(3-(trifluoromethyl)phenoxy) piperidine], the EC50 on human D2R/β-arrestin [1] and at human D2R/β-arrestin [2] was above 30 µM throughout. Further, the IC50 against human D2R/β-arrestin [3] and on human D2R/β-arrestin [4] was 1 to 10 µM each time.

Take `CC1(Oc2cccc(C(F)(F)F)c2)CCN(CCOc2ccccc2F)C1` (stereo not shown) [Example 64, 1-(2-(2-fluorophenoxy)ethyl)-3-methyl-3-(3-(trifluoromethyl)phenoxy) pyrrolidine]: the concentration giving a half-maximal response (EC50) is 0.1 to 1 µM on human D2R/β-arrestin [1] and above 30 µM on human D2R/β-arrestin [2]. Also, the half-maximal inhibitory concentration (IC50) was above 30 µM against human D2R/β-arrestin [3] and 10 to 30 µM against human D2R/β-arrestin [4].

Consider `CC1(Oc2cccc(C(F)(F)F)c2)CCN(CCOc2ccccc2Cl)C1` (stereo not shown) [Example 65, 1-(2-(2-Chlorophenoxy)ethyl)-3-methyl-3-(3-(trifluoromethyl)phenoxy) pyrrolidine], for which the EC50 on human D2R/β-arrestin [1] and at human D2R/β-arrestin [2] was above 30 µM in each case. Further, the half-maximal inhibitory concentration (IC50) against human D2R/β-arrestin [3] fell in the range of 0.1 to 1 µM; against human D2R/β-arrestin [4], 1 to 10 µM.

As for `CC1(Oc2cccc(C(F)(F)F)c2)CCN(CCOc2cc(F)ccc2F)C1` (stereo not shown) [Example 66, 1-(2-(2,5-difluorophenoxy)ethyl)-3-methyl-3-(3-(trifluoromethyl)phenoxy)pyrrolidine], the concentration for a half-maximal effect (EC50) at human D2R/β-arrestin [1] is below 0.1 µM; on human D2R/β-arrestin [2], above 30 µM. For the same compound, the IC50 against human D2R/β-arrestin [3] fell in the range of 10 to 30 µM; against human D2R/β-arrestin [4], 1 to 10 µM.

Turning to `CC1(Oc2ccccc2)CCN(CCOc2cccc(C(F)(F)F)c2)CC1` [Example 67, 4-methyl-4-phenoxy-1-(2-(3-(trifluoromethyl)phenoxy)ethyl)piperidine], the EC50 at human D2R/β-arrestin [1] is below 0.1 µM; on human D2R/β-arrestin [2], above 30 µM. Further, the 50% inhibitory concentration (IC50) against human D2R/β-arrestin [3] was above 30 µM; against human D2R/β-arrestin [4] it was 0.1 to 1 µM.

For the compound `Cc1ccccc1OCCN1CCC(C)(Oc2ccccc2)CC1` [Example 69, 4-methyl-4-phenoxy-1-(2-(o-tolyloxy)ethyl)piperidine], the EC50 at human D2R/β-arrestin [1] and at human D2R/β-arrestin [2] was below 0.1 µM each time. Moreover, the IC50 is above 30 µM at human D2R/β-arrestin [3] and 0.1 to 1 µM against human D2R/β-arrestin [4].

`CCc1ccccc1OCCN1CCC(C)(Oc2ccccc2)CC1` [Example 70, 1-(2-(2-Ethylphenoxy)ethyl)-4-methyl-4-phenoxypiperidine]: the EC50 is below 0.1 µM at human D2R/β-arrestin [1] and above 30 µM on human D2R/β-arrestin [2]. The IC50 at human D2R/β-arrestin [3] lay within 10 to 30 µM; on human D2R/β-arrestin [4], 0.1 to 1 µM.

As to `CC(C)c1ccccc1OCCN1CCC(C)(Oc2ccccc2)CC1` [Example 71, 1-(2-(2-isopropylphenoxy)ethyl)-4-methyl-4-phenoxypiperidine], the EC50 on human D2R/β-arrestin [1] and on human D2R/β-arrestin [2] was above 30 µM each time. For the same compound, the concentration for half-maximal inhibition (IC50) at human D2R/β-arrestin [3] and against human D2R/β-arrestin [4] was 0.1 to 1 µM in each case.

As to `COc1ccccc1OCCN1CCC(C)(Oc2ccccc2)CC1` [Example 72, 1-(2-(2-Methoxyphenoxy)ethyl)-4-methyl-4-phenoxypiperidine], the results for the 50% effective concentration (EC50) at human D2R/β-arrestin [1] and at human D2R/β-arrestin [2] were below 0.1 µM and above 30 µM, respectively. In addition, the figures for the concentration for half-maximal inhibition (IC50) against human D2R/β-arrestin [3] and against human D2R/β-arrestin [4] were below 0.1 µM and 0.1 to 1 µM, respectively.

On to `CC1(Oc2ccccc2)CCN(CCOc2ccc(F)cc2C(F)(F)F)CC1` [Example 75, 1-(2-(4-Fluoro-2-(trifluoromethyl)phenoxy)ethyl)-4-methyl-4-phenoxy piperidine], for which the EC50 at human D2R/β-arrestin [1] and at human D2R/β-arrestin [2] was above 30 µM throughout. Moreover, the IC50 against human D2R/β-arrestin [3] and at human D2R/β-arrestin [4] was 0.1 to 1 µM in each case.

For `CC1(Oc2ccccc2)CCN(CCOc2cc(F)ccc2C(F)(F)F)CC1` [Example 76, 1-(2-(5-fluoro-2-(trifluoromethyl)phenoxy)ethyl)-4-methyl-4-phenoxypiperidine], the concentration giving a half-maximal response (EC50) was below 0.1 µM on human D2R/β-arrestin [1] and above 30 µM on human D2R/β-arrestin [2]. The IC50 on human D2R/β-arrestin [3] is above 30 µM; on human D2R/β-arrestin [4], 0.1 to 1 µM.

Take `CC1(Oc2ccccc2)CCN(CCn2cccc(C(F)(F)F)c2=O)CC1` [Example 77, 1-(2-(4-methyl-4-phenoxypiperidin-1-yl)ethyl)-3-(trifluoromethyl)pyridin-2(1H)-one]: the EC50 at human D2R/β-arrestin [1] was 10 to 30 µM; at human D2R/β-arrestin [2] it was above 30 µM. In addition, the half-inhibitory concentration (IC50) at human D2R/β-arrestin [3] and on human D2R/β-arrestin [4] was above 30 µM throughout.

Turning to `CC1(Oc2ccccc2)CCN(C(C)(C)COc2ccccc2C(F)(F)F)CC1` [Example 80, 4-methyl-1-(2-methyl-1-(2-(trifluoromethyl)phenoxy)propan-2-yl)-4-phenoxypiperidine], the EC50 on human D2R/β-arrestin [1] is 10 to 30 µM; at human D2R/β-arrestin [2], above 30 µM. The IC50 against human D2R/β-arrestin [3] and against human D2R/β-arrestin [4] was 1 to 10 µM in each case.

Consider `CC(CO)N1CCC(C)(Oc2ccccc2)CC1` (stereo not shown) [Example 81, 2-(4-Methyl-4-phenoxypiperidin-1-yl)propan-1-ol], for which the EC50 is 1 to 10 µM at human D2R/β-arrestin [1] and above 30 µM at human D2R/β-arrestin [2]. Besides, the IC50 is above 30 µM against human D2R/β-arrestin [3] and 10 to 30 µM against human D2R/β-arrestin [4].

In the case of `CC1CC(C)(Oc2ccccc2)CC(C)N1CCOc1ccccc1C(F)(F)F` (stereo not shown) [Example 83, 2,4,6-Trimethyl-4-phenoxy-1-(2-(2-(trifluoromethyl)phenoxy)ethyl) piperidine], the EC50 on human D2R/β-arrestin [1] and on human D2R/β-arrestin [2] was above 30 µM throughout. The IC50 on human D2R/β-arrestin [3] fell in the range of 0.1 to 1 µM; on human D2R/β-arrestin [4], 1 to 10 µM.

`COc1ccccc1OC1(C)CCN(CCOc2ccccc2)C1` (stereo not shown) [Example 84, 3-(2-Methoxyphenoxy)-3-methyl-1-(2-phenoxyethyl)pyrrolidine]: the EC50 on human D2R/β-arrestin [1] is 1 to 10 µM; at human D2R/β-arrestin [2] it was above 30 µM. Further, the IC50 was above 30 µM against human D2R/β-arrestin [3] and 1 to 10 µM at human D2R/β-arrestin [4].

On to `Cc1ccccc1OC1(C)CCN(CCOc2ccccc2)C1` (stereo not shown) [Example 85, 3-Methyl-1-(2-phenoxyethyl)-3-(o-tolyloxy)pyrrolidine], for which the 50% effective concentration (EC50) was below 0.1 µM at human D2R/β-arrestin [1] and above 30 µM at human D2R/β-arrestin [2]. Besides, the IC50 on human D2R/β-arrestin [3] is above 30 µM; at human D2R/β-arrestin [4], 1 to 10 µM.

Consider `CC1(Oc2ccccc2)CCN(CCOc2ccccc2F)CC1` [Example 87, 1-(2-(2-fluorophenoxy)ethyl)-4-methyl-4-phenoxypiperidine], for which the concentration for a half-maximal effect (EC50) on human D2R/β-arrestin [1] and at human D2R/β-arrestin [2] was below 0.1 µM throughout. Moreover, the concentration for half-maximal inhibition (IC50) against human D2R/β-arrestin [3] and against human D2R/β-arrestin [4] was above 30 µM each time.

Turning to `CC1(Oc2ccc(Cl)cc2)CCN(CCOc2ccccc2Cl)CC1` [Example 88, 4-(4-chlorophenoxy)-1-(2-(2-chlorophenoxy)ethyl)-4-methylpiperidine], the concentration for a half-maximal effect (EC50) at human D2R/β-arrestin [1] and at human D2R/β-arrestin [2] was below 0.1 µM throughout. Further, the concentration for half-maximal inhibition (IC50) is above 30 µM against human D2R/β-arrestin [3] and below 0.1 µM on human D2R/β-arrestin [4].

In the case of `CC1(Oc2ccccc2)CCN(CCOc2ccccc2Cl)CC1` [Example 89, 1-(2-(2-Chlorophenoxy)ethyl)-4-methyl-4-phenoxypiperidine], the concentration giving a half-maximal response (EC50) on human D2R/β-arrestin [1] and on human D2R/β-arrestin [2] was below 0.1 µM each time. Moreover, the 50% inhibitory concentration (IC50) is above 30 µM on human D2R/β-arrestin [3] and below 0.1 µM against human D2R/β-arrestin [4].

For `CC1(Oc2ccc(Cl)cc2)CCN(CCOc2ccc3ncoc3c2)C1` (stereo not shown) [Example 92, 6-(2-(3-(4-Chlorophenoxy)-3-methylpyrrolidin-1-yl)ethoxy)benzo[d]oxazole], the figures for the half-maximal effective concentration (EC50) at human D2R/β-arrestin [1] and on human D2R/β-arrestin [2] were below 0.1 µM and above 30 µM, respectively. Moreover, the IC50 at human D2R/β-arrestin [3] was 0.1 to 1 µM; at human D2R/β-arrestin [4] it was 1 to 10 µM.

For `OC1(c2ccccc2)CCN(CCOc2ccccc2)C1` (stereo not shown) [Example 93, 1-(2-Phenoxyethyl)-3-phenylpyrrolidin-3-ol], the EC50 is 0.1 to 1 µM at human D2R/β-arrestin [1] and above 30 µM at human D2R/β-arrestin [2]. Further, the IC50 at human D2R/β-arrestin [3] was in the range of 0.1 to 1 µM; against human D2R/β-arrestin [4] it was 1 to 10 µM.
